Here are results for one substance from patent US20080279856A1, “Inhibition of Bradykinin Release” (Novo Nordisk Pharmaceuticals, Inc., priority 1999, published 2008).

Positions count from the first letter of the chain named.

For experiment [1] the following is noted: after cardiac operations; cited from earlier work.
The test system of experiment [2] is kallikrein-C1-inhibitor and C1-C1-inhibitor complexes. The settings on record: cited from earlier work.
The target of a further experiment is T1, HBP mutant (G175N) (Homo sapiens, UniProt P20160, G201N).
T1 sequence (P20160 27-248 G201N): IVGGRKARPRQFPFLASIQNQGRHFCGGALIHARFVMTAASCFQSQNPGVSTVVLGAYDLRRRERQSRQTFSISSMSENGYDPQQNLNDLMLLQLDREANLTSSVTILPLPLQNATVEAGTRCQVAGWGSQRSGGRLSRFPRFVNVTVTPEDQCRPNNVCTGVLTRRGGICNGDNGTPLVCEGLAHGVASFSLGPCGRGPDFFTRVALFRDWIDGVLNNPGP
As to the kind of experiment: Aprotinin effect on leakage induced by HBP mutant (G175N). It is filed as cell-based. The following applies: leakage model.

Experiment [3] deals with HBP-induced increase in EC permeability. Description: Inhibition of HBP-induced increase in EC permeability. It is filed as cell-based, human, bovine. The settings on record: aprotinin 100 μg/ml, 30 min pre-incubation; HBP 75 μg/ml; N=6. From the text:
Alternatively, HBP antagonists may be detected by culturing endothelial cells in the presence of HBP and in the presence and absence of a substance suspected of being an antagonist. In a specific embodiment, the antagonist is a monoclonal antibody that binds to at least one epitope of HBP, preferably human HBP, wherein said epitope binds to prekallikrein-H-kininogen complex and activates release of bradykinin. In a preferred embodiment, the monoclonal antibody is a human monoclonal antibody. In one embodiment, the antibody and HBP are preincubated together before incubating with endothelial cells for about 10 minutes at 37° C. The effect of the substance on the permeability of endothelial cells is determined by measuring transendothelial electrical resistance or determining albumin clearance as described in the Examples, infra. A decrease in permeability would indicate that the substance does act as an HBP antagonist.
For measurement of electrical resistance across the EC monolayer, the filter insert is transferred to a resistance measurement chamber (ENDOHM-12; World Precision Instruments, Sarasota, Fla., USA) modified so as to assure exact positioning of the electrodes in relation to each other and to the filter insert during repeated measurements. The chamber (lower compartment) and the filter insert (upper compartment) are filled with 2 ml and 400 μl culture medium, respectively. […] Direct readings of the electrical resistance are given by an ohmmeter (EVOM; World Precision Instruments, Sarasota, Fla., USA) connected to the electrodes of the resistance chamber. The electrical resistance of individual EC monolayers is obtained by subtracting the resistance of the corresponding naked filter coated with Biomatrix as measured prior to seeding of the endothelial cells.
Evans blue dye-conjugated albumin (EBA) is used as a marker for macromolecular permeability of the EC monolayers. […] In experiments where albumin permeability is analyzed, the culture medium in the upper compartment is exchanged for medium containing EBA. […]

Experiment [4] is described as follows: 3H-LPS binding to HBP, scintillation proximity assay. The following applies: up to 50 mM unlabeled BPTI. On the procedure:
The affinity for lipopolysaccharide (3H-LPS) is measured by scintillation proximity assay technology (SPA) as described (Linde, V., Bjørn, S., Kastrup, J. S., and Flodgaard, H., 2000, Biotechniques 28:218-222). All samples are repeated in triplicates.
On the technique in general: Scintillation proximity formats need no separation of bound from free tracer.

For a further experiment, the system named is endothelial cell. The following applies: hypoxic cold storage in organ preservation solutions; cited from earlier work.
The target in the next experiment is T2, HBP (Homo sapiens, UniProt P20160).
T2 sequence (P20160 27-248): T1 sequence (P20160 27-248 G201N) with N175G
The settings on record: cited from earlier work.

Experiment [5] deals with bradykinin-induced increase in EC permeability. Description: Inhibition of bradykinin-induced increase in EC permeability. The settings on record: aprotinin 100 μg/ml; subsequent bradykinin 100 nM. It is filed as cell-based, human, bovine. How it is done:
For measurement of electrical resistance across the EC monolayer, the filter insert is transferred to a resistance measurement chamber (ENDOHM-12; World Precision Instruments, Sarasota, Fla., USA) modified so as to assure exact positioning of the electrodes in relation to each other and to the filter insert during repeated measurements. The chamber (lower compartment) and the filter insert (upper compartment) are filled with 2 ml and 400 μl culture medium, respectively. All measurements are made at 37° C. with the equipment placed in a cell culture incubator. Direct readings of the electrical resistance are given by an ohmmeter (EVOM; World Precision Instruments, Sarasota, Fla., USA) connected to the electrodes of the resistance chamber. The electrical resistance of individual EC monolayers is obtained by subtracting the resistance of the corresponding naked filter coated with Biomatrix as measured prior to seeding of the endothelial cells.
Before transferring the filter inserts to the resistance measurement chamber (kept at 37° C.), the medium in the insert and in the chamber is replaced with fresh culture medium (37° C.) supplemented with 10 mM Hepes. HBP (25-100 μg/ml) or PMN secretion product is added either to the upper or the lower compartment and change in transendothelial electrical resistance is measured every minute until a plateau phase is reached, and thereafter at 5-min intervals. In separate experiments, PMNs (2×10^6) preincubated with mAb IB4 (10 μg/ml) are added to the upper compartment (PMN:EC ratio=10:1) and allowed to sediment for 10 min. Activation of the PMNs is induced through antibody crosslinking of leukocytic CD18 by addition of goat anti-mouse IgG F(ab′)2 diluted 1:20. In experiments where albumin permeability across the EC monolayer is studied, the medium in the insert contained EBA. During the experiment, the filter insert is moved at 5-10 min intervals to new wells containing fresh medium. All incubations are made at 37° C. After the experiment, the medium in the lower wells is aspirated and analyzed for EBA content.

The subject of a further experiment is vascular permeability. The following applies: cited from earlier work.

Usually Kd stands for a measure of binding affinity in units of concentration. Take aprotinin: in experiment [1], the blood loss result was “reduces blood loss” and the postoperative bleeding time result is reported as “decreases the elevated postoperative bleeding time”. Besides, the “kallikrein-C1-inhibitor and C1-C1-inhibitor complexes” value in experiment [2] is listed as “decrease”. For the same substance, the “effect of aprotinin on mutant-induced leakage” value on HBP mutant (G175N) is given as “no inhibitory effect”. Also, the “effect on HBP-induced increase in EC permeability” value in experiment [3] was “largely prevented”. Moreover, in [4], the “competition for 3H-LPS binding to native HBP” value was “no inhibitory effects”. In addition, in the experiment with endothelial cell, the endothelial cell viability entry is “increases endothelial cell viability”. Further, the Kd at HBP is 100 nM. In addition, in experiment [5], the “effect on bradykinin-induced permeability change” value was “but not the permeability change induced by subsequent administration of bradykinin”. In the experiment with vascular permeability, the “vascular permeability and neutrophil count” value is “decreased this vascular permeability and neutrophil count”.
